Source: ChEMBL document CHEMBL1137738, “Synthesis of a series of 8-(substituted-phenyl)xanthines and a study on the effects of substitution pattern of phenyl substituents on affinity for adenosine A(1) and A(2A) receptors” (Eur J Med Chem, 2009)
pKi: −log10 of the molar value.

Tests used:
Adenosine receptor A2a = Adenosine receptor A2a (Homo sapiens, UniProt P29274); experiment: biochemical
Adenosine receptor A1 = molecular target: T1, Adenosine receptor A1 (Homo sapiens, UniProt P30542); experiment: biochemical
T1 sequence (P30542 whole entry): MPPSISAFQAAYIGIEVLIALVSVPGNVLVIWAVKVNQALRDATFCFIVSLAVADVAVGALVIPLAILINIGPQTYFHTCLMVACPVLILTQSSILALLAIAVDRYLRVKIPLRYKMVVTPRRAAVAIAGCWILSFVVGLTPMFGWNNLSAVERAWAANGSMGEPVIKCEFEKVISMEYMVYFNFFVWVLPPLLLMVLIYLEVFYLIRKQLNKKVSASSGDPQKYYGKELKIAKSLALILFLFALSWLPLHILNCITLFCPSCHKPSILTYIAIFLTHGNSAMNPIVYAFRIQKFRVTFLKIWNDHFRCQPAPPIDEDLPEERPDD
Description: Displacement of [3H]DPCPX from human cloned adenosine A1 receptor expressed in CHOK1 cells by scintillation counting

Homo sapiens = organism: Homo sapiens; experiment: Selectivity ratio of Ki for human cloned adenosine A1 receptor to Ki for human cloned adenosine A2A receptor
[1] = Selectivity for adenosine A1 receptor over adenosine A2 receptor

Chain of Adenosine receptor A2a (P29274 whole entry): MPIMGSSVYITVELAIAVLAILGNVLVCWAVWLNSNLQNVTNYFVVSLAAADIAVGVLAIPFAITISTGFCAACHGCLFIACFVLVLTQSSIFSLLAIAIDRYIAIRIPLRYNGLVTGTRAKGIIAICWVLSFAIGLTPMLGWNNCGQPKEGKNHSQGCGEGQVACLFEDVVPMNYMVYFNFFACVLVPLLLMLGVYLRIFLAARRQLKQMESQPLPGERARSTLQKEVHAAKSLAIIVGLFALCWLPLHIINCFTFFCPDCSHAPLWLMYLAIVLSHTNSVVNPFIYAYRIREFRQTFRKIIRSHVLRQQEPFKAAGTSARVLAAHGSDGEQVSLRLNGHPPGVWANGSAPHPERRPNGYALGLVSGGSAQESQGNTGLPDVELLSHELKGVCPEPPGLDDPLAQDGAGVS

Row | Compound | pKi (Adenosine receptor A2a) | pKi (Adenosine receptor A1) | Ratio Ki (Homo sapiens) | fold change (FC) [1]
1 | COc1ccc(-c2nc3c([nH]2)c(=O)n(C)c(=O)n3C)cc1OCCN1CCCCC1 | 5.57 | < 4.00 | 38 | –
2 | Cn1c(=O)c2[nH]c(-c3cccc(OCCN4CCCCC4)c3)nc2n(C)c1=O | 6.10 | 5.68 | – | –
3 | COc1cc(-c2nc3c([nH]2)c(=O)n(C)c(=O)n3C)ccc1OCCN1CCCCC1 | 6.15 | < 4.00 | 100 | –
4 | CN(C)CCOc1cccc(-c2nc3c([nH]2)c(=O)n(C)c(=O)n3C)c1 | 6.40 | 6.10 | – | –
5 | CCN(CC)CCOc1ccc(-c2nc3c([nH]2)c(=O)n(C)c(=O)n3C)cc1OC | 5.96 | < 4.00 | 100 | –
6 | COc1cc(-c2nc3c([nH]2)c(=O)n(C)c(=O)n3C)ccc1OCCN(C)C | 6.22 | < 4.00 | 100 | –
7 | COc1cc(-c2nc3c([nH]2)c(=O)n(C)c(=O)n3C)ccc1OCCN1CCOCC1 | 4.00 | < 4.00 | – | –
8 | COc1cc(-c2nc3c([nH]2)c(=O)n(C)c(=O)n3C)ccc1OCCN1CCCC1 | 6.00 | 4.95 | 10 | –
9 | COc1ccc(-c2nc3c([nH]2)c(=O)n(C)c(=O)n3C)cc1OCCN1CCOCC1 | 7.00 | < 4.00 | – | –
10 | Cn1c(=O)c2[nH]c(-c3cccc(OCCN4CCCC4)c3)nc2n(C)c1=O | 6.40 | 5.80 | – | –
11 | COc1ccc(-c2nc3c([nH]2)c(=O)n(C)c(=O)n3C)cc1OCCN(C)C | 6.40 | 4.87 | 30 | –
12 | CCCn1c(=O)c2[nH]c(-c3ccc(OC)cc3O)nc2n(CCC)c1=O | – | – | – | 90
13 | CCN(CC)CCOc1cccc(-c2nc3c([nH]2)c(=O)n(C)c(=O)n3C)c1 | 7.00 | 4.85 | 140 | –
14 | CCN(CC)CCOc1cc(-c2nc3c([nH]2)c(=O)n(C)c(=O)n3C)ccc1OC | 6.22 | 4.37 | 70 | –
15 | Cn1c(=O)c2[nH]c(-c3cccc(OCCN4CCOCC4)c3)nc2n(C)c1=O | 5.85 | 5.68 | – | –
